18 molecules from patent US9428542B2, “Lupane triterpenoid derivatives and pharmaceutical use thereof” (priority 2012, dated 2016) can be followed below.

Some results are limits rather than exact numbers.

The subject of one data set is MT-2 cells. The data set is described as follows: Compounds' cytotoxicity assay in MT-2 cells (CellTiter-Glo). The settings on record: toxicity in MT-2 cells, 3 days. It is filed as cell-based. The arrangement: unit not given here. The method, then:
3. Method for Compounds' Cytotoxicity Assay:
The MT-2 cells are diluted to a needed concentration. 90 μl of the MT-2 cells suspension was added into 384-well plates containing 10 μl of the tested compounds. Compounds were dissolved in DMSO and tested as 11 points 3-fold serial dilutions. After addition of cells to compound plates, plates were placed to humidified 5% CO2 37 incubator for 3 days. The Luciferase activity was measured by CellTiter-Glo® Luminescent Cell Viability Assay kit (Promega Corp., WI, USA).
(§1) TC50 is referred to the toxicity in MT-2 cells by the compounds tested at 50% concentration; IC50 is referred to the inhibiting HIV-1IIIB replication in MT-2 cells by the compounds tested at 50% concentration; Therapeutic Index (TI)=TC50/IC50.
Background: In ATP-based viability assays light output follows the ATP content of the culture.

The subject of the next data set is HIV-1IIIB. The data set can be described thus: HIV-1 full replication assay (HIV-1IIIB-infected MT-2 cells, supernatant read out on TZM-bl cells, β-Gal). It is filed as cell-based. The conditions noted are these: Human immunodeficiency virus 1, MT2, 72 h, inhibiting HIV-1IIIB replication in MT-2 cells, 3 days; read-out: IC50 (PM). The method, then:
The antiviral activity of the compounds of the present invention was determined in a HIV-1 full replication assay.
In this assay, MT-2 cells that are infected with HIV-1IIIB were co-cultured with different concentration of the tested compounds for 3 days and then supernatant is transferred into new 384-well plates containing TZM-bl cells (also called JC53-bl). TZM-bl cells that could be infected by various kinds of HIV-1 strains stably express a great amount of HIV-1 receptor, co-receptor CD4 molecular, and co-receptor CXCR4 and CCR5. TZM-bl cells harbor LTR-luciferase and β-gal two report genes. The expression of luciferase and β-gal reporter directed by HIV-1 LTR can be activated by Tat protein generated after HIV infection, and the quantity of expression is proportional to the quantity of HIV-1. Compounds that interfere with virus replication in MT-2 cells, maturation of the virus, or post-entry steps in the HIV lifecycle decrease the luciferase signal or β-gal signal. In this experiment, BVM (Bevirimat, PA-457) is used as a positive control drug.
Method for Inhibiting HIV-1 Replication Assay:
The MT-2 cells are infected at a Multiciplicity (MOI) of 0.01 TCID50, and then the MT-2 cells suspension was diluted to a needed concentration. 90 μl of the MT-2 cells suspension from above was added into 384-well plates containing 10 μl of the tested compounds.
Compounds were dissolved in DMSO and tested as 11 points 3-fold serial dilutions. After addition of cells to compound plates, plates were placed to humidified 5% CO2 37 incubator for 3 days. 10 μl of cells culture supernatant from the incubated plates was transferred into new black 384-well plates.
Adjusted the TZMb1 cells concentration and 40 μl of TZMb1 cells was added into each well in the black 384-well plates. After addition of the TZMb1 cells to the black plates, black plates were placed to humidified 5% CO2 37 incubator for 24 h, then β-Gal activity was measured.
The anti viral activity %=(measured number-lowest mean number)/(highest mean number-lowest mean number)×100. The IC50 values were calculated by Median Equation and the IC curve was generated by Graphpad Prism V 5.03.
as §1

Broadly, the IC50 is the concentration that inhibits the measured activity by half. Regarding `CC(C)C1=C2[C@H]3CC[C@@H]4[C@@]5(C)CC[C@H](OC(=O)CC(C)(C)C(=O)O)C(C)(C)[C@@H]5CC[C@@]4(C)[C@]3(C)CC[C@@]2(Cc2nnc(-c3ccc(Cl)cc3)n2CCN(C)C)CC1=O` [Compound 116-1], the “TC50 (PM)” value in the data set on MT-2 cells was found to be 35. In addition, in the data set on HIV-1IIIB, the IC50 was at most 0.17 nM.
Taken in the same sequence, the figures for `CC(C)C1=C2[C@H]3CC[C@@H]4[C@@]5(C)CC[C@H](OC(=O)CC(C)(C)C(=O)O)C(C)(C)[C@@H]5CC[C@@]4(C)[C@]3(C)CC[C@@]2(Cc2nnc(-c3ccc(Cl)cc3)n2CCN)CC1=O` [Compound 116-4] were 33 and 2.5 nM.
`CCn1c([C@@]23CC[C@]4(C)[C@H](CC[C@@H]5[C@@]6(C)CC[C@H](OC(=O)CC(C)(C)C(=O)O)C(C)(C)[C@@H]6CC[C@]54C)C2=C(C(C)C)C(=O)C3)cc(=O)n1-c1ccc(Cl)cc1` [Compound 98-5]: in the data set on MT-2 cells, the “TC50 (PM)” value came out at 13. Also, the IC50 in the data set on HIV-1IIIB was at most 0.17 nM.
Taken in the same sequence, the figures for `CC(C)C1=C2[C@H]3CC[C@@H]4[C@@]5(C)CC[C@H](OC(=O)CC(C)(C)C(=O)O)C(C)(C)[C@@H]5CC[C@@]4(C)[C@]3(C)CC[C@@]2(Cc2cc(=O)n(-c3ccc(Cl)cn3)n2C)CC1=O` [98′-2] were 56 and 0.37 nM.
The like results for `CNCCn1c(C[C@@]23CC[C@]4(C)[C@H](CC[C@@H]5[C@@]6(C)CC[C@H](OC(=O)CC(C)(C)C(=O)O)C(C)(C)[C@@H]6CC[C@]54C)C2=C(C(C)C)C(=O)C3)nnc1-c1ccc(Cl)cc1` [Compound 116-2] were, in that order, 27 and 4.8 nM.
The like results for `CC(C)C1=C2[C@H]3CC[C@@H]4[C@@]5(C)CC[C@H](OC(=O)CC(C)(C)C(=O)O)C(C)(C)[C@@H]5CC[C@@]4(C)[C@]3(C)CC[C@@]2(c2cc(=O)n(-c3ccc(Cl)cc3)n2C)CC1` [Compound 96-1] were, in that order, 17 and 33 nM.
Regarding `CC(C)C1=C2[C@H]3CC[C@@H]4[C@@]5(C)CC[C@H](OC(=O)CC(C)(C)C(=O)O)C(C)(C)[C@@H]5CC[C@@]4(C)[C@]3(C)CC[C@@]2(c2nnc(-c3ccc(Cl)cc3)n2CCN(C)C)CC1=O` [Compound 116-3], in the data set with MT-2 cells, the “TC50 (PM)” value was 33. Further, the IC50 in the data set with HIV-1IIIB was found to be 0.55 nM.
Taken in the same sequence, the figures for `COc1ccc(-c2nnc(C[C@@]34CC[C@]5(C)[C@H](CC[C@@H]6[C@@]7(C)CC[C@H](OC(=O)CC(C)(C)C(=O)O)C(C)(C)[C@@H]7CC[C@]65C)C3=C(C(C)C)C(=O)C4)o2)nc1` [Compound 22-17] were 200 and 2.8 nM.
With `CC(C)C1=C2[C@H]3CC[C@@H]4[C@@]5(C)CC[C@H](OC(=O)CC(C)(C)C(=O)O)C(C)(C)[C@@H]5CC[C@@]4(C)[C@]3(C)CC[C@@]2(c2nnc(-c3ncc(Cl)cn3)o2)CC1=O` [Compound 27-14], the “TC50 (PM)” value in the data set with MT-2 cells is reported as 46. In addition, the IC50 in the data set on HIV-1IIIB is 4.9 nM.
Taken in the same sequence, the figures for `CC(C)C1=C2[C@H]3CC[C@@H]4[C@@]5(C)CC[C@H](OC(=O)CC(C)(C)C(=O)O)C(C)(C)[C@@H]5CC[C@@]4(C)[C@]3(C)CC[C@@]2([C@@H](O)c2nnc(-c3ccc(Cl)cn3)o2)CC1=O` [Compound 127-3] were 33 and 0.6 nM.
The like results for `CC(C)C1=C2[C@H]3CC[C@@H]4[C@@]5(C)CC[C@H](OC(=O)CC(C)(C)C(=O)O)C(C)(C)[C@@H]5CC[C@@]4(C)[C@]3(C)CC[C@@]2(c2nnc(-c3ccccc3)o2)CC1=O` [Compound 27-2] were, in that order, 100 and 2 nM.
The like results for `CC(C)C1=C2[C@H]3CC[C@@H]4[C@@]5(C)CC[C@H](OC(=O)CC(C)(C)C(=O)O)C(C)(C)[C@@H]5CC[C@@]4(C)[C@]3(C)CC[C@@]2(Cc2nnc(-c3ccc(C(F)(F)F)cn3)o2)CC1=O` [Compound 22-12] were, in that order, 31 and 0.4 nM.
For the molecule `CC(C)C1=C2[C@H]3CC[C@@H]4[C@@]5(C)CC[C@H](OC(=O)CC(C)(C)C(=O)O)C(C)(C)[C@@H]5CC[C@@]4(C)[C@]3(C)CC[C@@]2(Cc2cc(=O)n(-c3ccc(Cl)cc3)n2C)CC1=O` [98′-1], in the data set with MT-2 cells, the “TC50 (PM)” value stood at 62. For the same molecule, in the data set with HIV-1IIIB, the IC50 is at most 0.17 nM.
The like results for `CC(C)C1=C2[C@H]3CC[C@@H]4[C@@]5(C)CC[C@H](OC(=O)CC(C)(C)C(=O)O)C(C)(C)[C@@H]5CC[C@@]4(C)[C@]3(C)CC[C@@]2(Nc2nnc(-c3ncc(Cl)cn3)o2)CC1=O` [Compound 141-3] were, in that order, 22 and 1.7 nM.
The like results for `CC(C)C1=C2[C@H]3CC[C@@H]4[C@@]5(C)CC[C@H](OC(=O)CC(C)(C)C(=O)O)C(C)(C)[C@@H]5CC[C@@]4(C)[C@]3(C)CC[C@@]2(c2nnc(-c3ccncc3)o2)CC1=O` [Compound 27-13] were, in that order, 200 and 17 nM.
Taken in the same sequence, the figures for `CC(C)C1=C2[C@H]3CC[C@@H]4[C@@]5(C)CC[C@H](OC(=O)CC(C)(C)C(=O)O)C(C)(C)[C@@H]5CC[C@@]4(C)[C@]3(C)CC[C@@]2(c2nnc(Nc3ccc(Cl)cc3)o2)CC1=O` [Compound 133-1] were 21 and 10 nM.
Regarding `CC(C)C1=C2[C@H]3CC[C@@H]4[C@@]5(C)CC[C@H](OC(=O)CC(C)(C)C(=O)O)C(C)(C)[C@@H]5CC[C@@]4(C)[C@]3(C)CC[C@@]2(Cc2nnc(-c3ccccc3)o2)CC1=O` [Compound 22-2], the “TC50 (PM)” value with MT-2 cells was determined as 28. In addition, in the data set on HIV-1IIIB, the IC50 was 1.7 nM.
Taken in the same sequence, the figures for `CC(C)C1=C2[C@H]3CC[C@@H]4[C@@]5(C)CC[C@H](OC(=O)CC(C)(C)C(=O)O)C(C)(C)[C@@H]5CC[C@@]4(C)[C@]3(C)CC[C@@]2(c2nnc(-c3cccnc3)o2)CC1=O` [Compound 27-9] were 200 and 8.8 nM.
